# Measured values as given in article doi:10.1101/2019.12.19.881847v1 (biorxiv, 2019).
# Where two headings read alike, the source gives them in different places.
# What was measured:
# VqmA [1] = target: T1, VqmA (Vibrio cholerae, UniProt A0A0F0AZW0); test: biochemical
# Target sequence in this assay (A0A0F0AZW0 1-246 limits assumed): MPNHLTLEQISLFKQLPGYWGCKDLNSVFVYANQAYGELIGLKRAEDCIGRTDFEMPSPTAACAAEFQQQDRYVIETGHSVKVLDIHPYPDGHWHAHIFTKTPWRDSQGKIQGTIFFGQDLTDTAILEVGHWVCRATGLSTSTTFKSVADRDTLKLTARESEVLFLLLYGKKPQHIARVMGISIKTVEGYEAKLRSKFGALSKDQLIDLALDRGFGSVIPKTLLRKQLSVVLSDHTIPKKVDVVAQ
# VqmA [2] = target: T1, VqmA; test: biochemical; remark: listed apart in the source
# Target sequence in this assay (A0A0F0AZW0 1-246): as the sequence (A0A0F0AZW0 1-246 limits assumed) above
SMILES,Kd (VqmA [1]),Kd (VqmA [2])
"C[C@H]1NC(C)(C)CNC1=O [compound 1, (R)-3,5,5-trimethylpiperazin-2-one]",10.3 ± 3.1 µM,
"Cc1cnc(O)cn1 [compound 5, 5]",,6 ± 1 µM
"CC1NC(C)(C)CNC1=O (stereo not drawn) [compound 2, 3,5,5-trimethylpiperazin-2-one]",7 ± 3.1 µM,
